The assay has as its system parsley (Petroselinum crispum). Nature of the assay: Resistance of parsley to flooding (abiotic) stress after watering with sample solutions. It is filed as in vivo. Particulars: potted parsley, watering every three days with 40 ml of 97% water+3% of the sample, observed after 18 days, vs water control. As to the method: The effectiveness of each combination on the plants tolerance to abiotic stress is analyzed.
Before the treatment all the leaves of the parsley plants are cut off.
This abundant watering is intended to mimic a flooding stress.
Each batch consists of four pots.
After 18 days the plants are observed, and pictures are taken.

Take `CC[C@H](CC[C@@H](C)[C@H]1CC[C@H]2[C@@H]3CC=C4C[C@@H](O)CC[C@]4(C)[C@H]3CC[C@]12C)C(C)C` [A, beta-sitosterol]: the “effect on the plants' tolerance to stress (flooding stress)” value is given as “All the samples, except the beta sitosterol alone (sample A), show a positive effect”.

Values taken from patent publication US11779019B2, “Composition made from polyol(s) and sterol(s) for use in the agricultural field” (ELICIT PLANT, priority 2017, dated 2023).
